Test results published in patent US8357707B2, “2-carboxamide cycloamino ureas” (Novartis AG, priority 2009, dated 2013).

How the values were obtained:
Type in all cases: biochemical
[1] = target: T1, PI3Kα (Homo sapiens, UniProt P42336); assay: PI3K KinaseGlo assay, PI3Kalpha; conditions: 10 nM enzyme, 1 μM ATP, 30 mins
T1 construct: His tag (C); made in house; host or cells: Tn5 insect cells, baculovirus BV-1075

[2] = target: T2, PI3Kβ (Homo sapiens, UniProt P42338); assay: PI3K KinaseGlo assay, PI3Kbeta; conditions: 25 nM enzyme, 1 μM ATP, 30 mins
T2 construct: His tag (C); made in house; host or cells: Tn5 insect cells, baculovirus BV949 (vector LR280)

[3] = target: T3, PI3Kγ (Homo sapiens, UniProt P48736, Q459R); assay: PI3K KinaseGlo assay, PI3Kgamma; conditions: 150 nM enzyme, 1 μM ATP, 90 mins
T3 construct: Constructs lacking the N-terminal 144 aa; His tag (C); made in house; host or cells: Tn5 insect cells, baculovirus BV950; construct from the Roger Williams lab (MRC LMB)

[4] = target: T4, PI3Kδ (Homo sapiens, UniProt O00329); assay: PI3K KinaseGlo assay, PI3Kdelta; conditions: 10 nM enzyme, 1 μM ATP, 30 mins
T4 construct: His tag (C); made in house; host or cells: Tn5 insect cells, baculovirus BV1060 (vector LR415)
T4 sequence (O00329 with tags, fused parts or gaps): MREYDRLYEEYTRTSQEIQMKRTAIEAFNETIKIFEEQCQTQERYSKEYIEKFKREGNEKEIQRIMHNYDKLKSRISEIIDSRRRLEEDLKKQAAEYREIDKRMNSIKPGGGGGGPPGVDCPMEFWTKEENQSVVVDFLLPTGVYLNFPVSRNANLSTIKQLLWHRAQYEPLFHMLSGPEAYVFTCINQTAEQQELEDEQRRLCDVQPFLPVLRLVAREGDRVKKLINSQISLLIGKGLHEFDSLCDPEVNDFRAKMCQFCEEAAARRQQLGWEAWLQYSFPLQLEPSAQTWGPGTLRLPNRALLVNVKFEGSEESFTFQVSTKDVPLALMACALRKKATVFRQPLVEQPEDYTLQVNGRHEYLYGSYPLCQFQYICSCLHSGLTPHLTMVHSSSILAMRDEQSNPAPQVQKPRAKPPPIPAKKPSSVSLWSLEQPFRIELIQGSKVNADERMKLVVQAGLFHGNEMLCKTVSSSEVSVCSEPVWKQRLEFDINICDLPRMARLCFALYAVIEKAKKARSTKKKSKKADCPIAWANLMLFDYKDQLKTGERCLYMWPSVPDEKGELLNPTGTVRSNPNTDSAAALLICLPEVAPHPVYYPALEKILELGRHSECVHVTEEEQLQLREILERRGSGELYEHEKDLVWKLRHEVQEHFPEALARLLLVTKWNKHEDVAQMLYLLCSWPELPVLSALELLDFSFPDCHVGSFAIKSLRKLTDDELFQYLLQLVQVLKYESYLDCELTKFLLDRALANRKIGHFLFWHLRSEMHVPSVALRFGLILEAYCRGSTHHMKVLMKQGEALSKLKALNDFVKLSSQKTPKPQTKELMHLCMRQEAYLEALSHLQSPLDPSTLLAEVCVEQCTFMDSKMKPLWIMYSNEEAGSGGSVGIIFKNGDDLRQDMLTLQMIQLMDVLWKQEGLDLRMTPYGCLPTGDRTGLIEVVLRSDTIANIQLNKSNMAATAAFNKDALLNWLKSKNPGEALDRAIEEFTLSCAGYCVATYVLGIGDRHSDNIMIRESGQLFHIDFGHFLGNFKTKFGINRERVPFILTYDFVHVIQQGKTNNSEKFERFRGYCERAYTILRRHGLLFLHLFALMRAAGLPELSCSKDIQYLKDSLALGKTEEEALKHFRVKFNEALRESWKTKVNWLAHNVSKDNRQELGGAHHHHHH

T3 sequence (P48736 with tags, fused parts or gaps Q459R): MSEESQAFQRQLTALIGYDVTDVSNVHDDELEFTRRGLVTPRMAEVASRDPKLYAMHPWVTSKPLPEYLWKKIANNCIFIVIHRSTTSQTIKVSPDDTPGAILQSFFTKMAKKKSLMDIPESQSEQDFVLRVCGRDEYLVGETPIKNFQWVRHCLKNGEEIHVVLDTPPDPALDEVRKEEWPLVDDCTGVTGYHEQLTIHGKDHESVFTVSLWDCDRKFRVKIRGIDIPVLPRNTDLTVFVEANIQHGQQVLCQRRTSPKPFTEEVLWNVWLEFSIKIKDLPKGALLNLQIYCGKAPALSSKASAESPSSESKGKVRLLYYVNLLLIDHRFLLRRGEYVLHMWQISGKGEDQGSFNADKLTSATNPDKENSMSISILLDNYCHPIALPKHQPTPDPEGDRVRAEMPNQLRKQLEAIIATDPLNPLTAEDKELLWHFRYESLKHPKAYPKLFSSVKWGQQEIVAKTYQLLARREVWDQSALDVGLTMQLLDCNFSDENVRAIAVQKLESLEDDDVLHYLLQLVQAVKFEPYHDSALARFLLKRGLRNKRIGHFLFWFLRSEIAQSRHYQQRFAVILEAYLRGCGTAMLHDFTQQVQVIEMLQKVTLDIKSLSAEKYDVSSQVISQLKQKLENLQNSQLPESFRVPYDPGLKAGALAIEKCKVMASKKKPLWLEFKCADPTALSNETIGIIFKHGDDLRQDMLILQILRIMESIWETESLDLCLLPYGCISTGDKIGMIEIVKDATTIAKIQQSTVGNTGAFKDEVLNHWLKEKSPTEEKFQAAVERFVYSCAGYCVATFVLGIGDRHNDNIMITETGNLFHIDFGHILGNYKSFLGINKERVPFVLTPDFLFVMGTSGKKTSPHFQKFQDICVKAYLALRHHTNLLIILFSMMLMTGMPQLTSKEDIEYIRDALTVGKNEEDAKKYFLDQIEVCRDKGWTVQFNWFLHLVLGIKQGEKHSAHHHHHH
T1 sequence (P42336 with tags, fused parts or gaps): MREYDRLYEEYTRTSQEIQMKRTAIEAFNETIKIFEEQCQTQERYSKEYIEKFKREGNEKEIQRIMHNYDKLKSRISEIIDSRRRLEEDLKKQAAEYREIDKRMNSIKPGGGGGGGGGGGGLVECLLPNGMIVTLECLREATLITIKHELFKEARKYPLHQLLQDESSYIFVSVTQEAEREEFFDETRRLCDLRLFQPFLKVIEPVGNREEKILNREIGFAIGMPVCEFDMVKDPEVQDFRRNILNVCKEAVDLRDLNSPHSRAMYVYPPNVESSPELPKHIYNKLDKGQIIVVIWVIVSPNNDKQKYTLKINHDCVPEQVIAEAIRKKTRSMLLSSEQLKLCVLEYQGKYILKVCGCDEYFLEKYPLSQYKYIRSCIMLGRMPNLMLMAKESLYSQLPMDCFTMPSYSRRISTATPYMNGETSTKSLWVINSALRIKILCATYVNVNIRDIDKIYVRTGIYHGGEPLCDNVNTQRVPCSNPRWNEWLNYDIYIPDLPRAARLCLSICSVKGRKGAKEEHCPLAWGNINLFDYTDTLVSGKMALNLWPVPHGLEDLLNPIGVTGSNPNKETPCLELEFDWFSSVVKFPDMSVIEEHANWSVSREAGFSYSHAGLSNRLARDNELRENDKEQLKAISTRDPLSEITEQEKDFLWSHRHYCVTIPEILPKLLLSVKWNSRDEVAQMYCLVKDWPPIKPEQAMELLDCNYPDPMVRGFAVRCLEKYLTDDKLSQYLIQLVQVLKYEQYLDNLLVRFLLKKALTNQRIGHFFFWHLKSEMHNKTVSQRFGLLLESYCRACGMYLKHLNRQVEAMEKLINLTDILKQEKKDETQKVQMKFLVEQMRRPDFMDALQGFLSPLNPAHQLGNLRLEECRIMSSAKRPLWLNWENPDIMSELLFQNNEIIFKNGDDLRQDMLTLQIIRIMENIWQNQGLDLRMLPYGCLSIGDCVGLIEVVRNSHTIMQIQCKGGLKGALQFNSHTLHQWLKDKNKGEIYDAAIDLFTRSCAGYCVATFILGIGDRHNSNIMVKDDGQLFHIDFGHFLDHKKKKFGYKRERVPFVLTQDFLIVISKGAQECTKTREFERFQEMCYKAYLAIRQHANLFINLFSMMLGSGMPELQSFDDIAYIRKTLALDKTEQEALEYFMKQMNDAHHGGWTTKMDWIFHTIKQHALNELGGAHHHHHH
T2 sequence (P42338 with tags, fused parts or gaps): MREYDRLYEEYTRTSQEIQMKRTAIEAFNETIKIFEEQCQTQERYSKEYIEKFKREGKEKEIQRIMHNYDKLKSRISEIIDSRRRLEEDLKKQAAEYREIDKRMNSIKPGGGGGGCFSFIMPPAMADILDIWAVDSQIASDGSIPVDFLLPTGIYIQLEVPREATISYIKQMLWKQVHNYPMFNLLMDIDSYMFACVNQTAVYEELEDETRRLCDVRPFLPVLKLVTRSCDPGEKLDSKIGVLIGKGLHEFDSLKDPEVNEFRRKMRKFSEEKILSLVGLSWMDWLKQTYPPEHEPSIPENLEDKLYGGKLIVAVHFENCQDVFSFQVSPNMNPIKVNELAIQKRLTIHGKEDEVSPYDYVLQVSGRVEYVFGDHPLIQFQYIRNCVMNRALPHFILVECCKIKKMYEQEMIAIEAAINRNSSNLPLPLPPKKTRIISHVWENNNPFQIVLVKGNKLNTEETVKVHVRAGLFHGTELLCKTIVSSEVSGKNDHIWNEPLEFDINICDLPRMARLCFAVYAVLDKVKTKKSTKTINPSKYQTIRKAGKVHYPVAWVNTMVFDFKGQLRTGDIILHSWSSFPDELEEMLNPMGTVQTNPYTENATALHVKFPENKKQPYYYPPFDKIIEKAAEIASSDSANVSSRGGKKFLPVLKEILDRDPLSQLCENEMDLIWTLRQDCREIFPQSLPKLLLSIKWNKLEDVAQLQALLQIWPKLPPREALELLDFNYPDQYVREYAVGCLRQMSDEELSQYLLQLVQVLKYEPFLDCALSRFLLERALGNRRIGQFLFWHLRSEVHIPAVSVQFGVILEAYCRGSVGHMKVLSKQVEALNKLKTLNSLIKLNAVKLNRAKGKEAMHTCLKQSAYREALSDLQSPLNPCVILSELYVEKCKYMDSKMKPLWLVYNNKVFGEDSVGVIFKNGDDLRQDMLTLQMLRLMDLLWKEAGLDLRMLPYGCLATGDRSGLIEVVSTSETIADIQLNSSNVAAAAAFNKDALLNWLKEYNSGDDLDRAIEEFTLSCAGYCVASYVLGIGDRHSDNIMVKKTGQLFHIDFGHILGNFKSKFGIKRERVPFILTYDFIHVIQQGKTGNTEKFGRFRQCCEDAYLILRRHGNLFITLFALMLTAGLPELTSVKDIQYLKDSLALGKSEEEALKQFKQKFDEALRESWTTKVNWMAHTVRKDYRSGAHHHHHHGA

SMILES | IC50 [1] [nM] | IC50 [2] [nM] | IC50 [3] [nM] | IC50 [4] [nM]
CCN(CC)c1ncc2c(n1)-c1sc(NC(=O)N3C[C@@H](O)C[C@H]3C(N)=O)nc1CC2 [Example 26, (2S,4S)-4-Hydroxy-pyrrolidine-1,2-dicarboxylic acid 2-amide 1-[(8-diethylamino-4,5-dihydro-thiazolo[4,5-h]quinazolin-2-yl)-amide]] | 6.5 | 328 | 138 | 58
CCN(CC)c1ncc2c(n1)-c1sc(NC(=O)N3C[C@H](O)C[C@H]3C(N)=O)nc1CC2 [Example 27, (2S,4R)-4-Hydroxy-pyrrolidine-1,2-dicarboxylic acid 2-amide 1-[(8-diethylamino-4,5-dihydro-thiazolo[4,5-h]quinazolin-2-yl)-amide]] | 4.5 | 397 | 97 | 72
CN(C)[C@@H]1C[C@@H](C(N)=O)N(C(=O)Nc2nc3c(s2)-c2nc(C(C)(C)C)sc2CC3)C1 [Example 31, (2S,4R)-4-Dimethylamino-pyrrolidine-1,2-dicarboxylic acid 2-amide 1-[(7-tert-butyl-4,5-dihydro-benzo[1,2-d;3,4-d′]bisthiazol-2-yl)-amide]] | 51.5 | 5820 | 1230 | 1940
CCN(CC)c1ncc2c(n1)-c1sc(NC(=O)N3CC[C@@H]4C[C@@]43C(N)=O)nc1CC2 [Example 19, (1S,5R)-2-Aza-bicyclo[3.1.0]hexane-1,2-dicarboxylic acid 1-amide 2-[(8-diethylamino-4,5-dihydro-thiazolo[4,5-h]quinazolin-2-yl)-amide]] | 5.5 | 588 | 123 | 77
CCN(CC)c1ncc2c(n1)-c1sc(NC(=O)N3CCC[C@@]3(CO)C(N)=O)nc1CC2 [Example 8, (R)-2-Hydroxymethyl-pyrrolidine-1,2-dicarboxylic acid 2-amide 1-[(8-diethylamino-4,5-dihydro-thiazolo[4,5-h]quinazolin-2-yl)-amide]] | 9.5 | 276 | 180 | 198
CC(C)(C)c1ncc2c(n1)-c1sc(NC(=O)N3CC[C@H]3C(N)=O)nc1CC2 [Example 25, (S)-Azetidine-1,2-dicarboxylic acid 2-amide 1-[(8-tert-butyl-4,5-dihydro-thiazolo[4,5-h]quinazolin-2-yl)-amide]] | 5.5 | 346 | 122 | 45
CC(C)(C)c1ncc2c(n1)-c1sc(NC(=O)N3CCC3C(N)=O)nc1CC2 (centres unmarked) [Example 24, Azetidine-1,2-dicarboxylic acid 2-amide 1-[(8-tert-butyl-4,5-dihydro-thiazolo[4,5-h]quinazolin-2-yl)-amide]] | 7 | 135 | 98 | 24
CCN(CC)c1ncc2c(n1)-c1sc(NC(=O)N3CCC[C@@]3(COC)C(N)=O)nc1CC2 [Example 5, (R)-2-Methoxymethyl-pyrrolidine-1,2-dicarboxylic acid 2-amide 1-[(8-diethylamino-4,5-dihydro-thiazolo[4,5-h]quinazolin-2-yl)-amide]] | 5.5 | 47 | 153 | 46
